Test results: publication PMC2877875, “Characterisation of the bifunctional dihydrofolate synthase–folylpolyglutamate synthase from Plasmodium falciparum; a potential novel target for antimalarial antifolate inhibition” (Molecular and Biochemical Parasitology, 2010)
“Also recorded” adds a separate entry of the source. Where two headings read alike, the source gives them in different places.

Columns and labels:
[1] = target: PfDHFS–FPGS (FPGS activity) (Plasmodium falciparum, UniProt Q8IE69); assay: biochemical; type: biochemical
Procedure: (§1) A standard reaction mix based on those established for bacterial and eukaryotic DHFS/FPGS assays was adopted [[28,36,37]] and contained 10 mM MgCl2, 5 mM DTT, 200 mM KCl, 100 mM Tris, 50 mM glycine, 1 mg/ml BSA, 45 μg/ml DHFS–FPGS protein (0.72 μM), pH 10. […] The enzyme reactions were carried out at 37 °C for 60 min in triplicate and stopped by transferring reaction tubes into an ice-cold water bath. Reaction mixes were then spotted onto DE81 ion-exchange paper (pre-treated with 0.5 M EDTA, pH 8.0 and then dried), air dried and the unreacted label washed away with 125 ml of 40 mM NaCl, 10 mM Tris–HCl, pH 8.0, four times, 20 min each wash. The filter was then exposed to a storage phosphor screen overnight and the screen scanned with a quantitative imager (Typhoon Trio Variable Mode Imager, GE Healthcare, UK). The measured counts were converted to concentrations by comparison with a standard curve derived from known amounts of the radiolabelled L-glutamate subsequently used as substrate in the assays. The enzyme activity data was analysed using the Matlab software package. Regression curves were fitted using the least squares routine.

[2] = test system: bacterial and mammalian FPGS; details: read-out: Km with bacterial and mammalian FPGS; cited from earlier work
[3] = test system: P. falciparum FCB strain; assay: Metabolic labelling of parasite cultures with 3H-folinic acid and 3H-methotrexate, HPLC analysis; type: cell-based, Plasmodium falciparum; details: for conversion to polyglutamylated forms in parasite cultures: 3H label 0.5 μCi/ml, ring-stage culture, 20 h incubation, HPLC
Procedure: 0.5 μCi/ml of either ^3H-folinic acid or ^3H-methotrexate at the same specific activity was used to label parallel 50 ml synchronous cultures of P. falciparum FCB strain. Label was incubated with ring-stage (6–10 h) parasites, which were harvested at the late trophozoite stage 20 h later. The labelled products were extracted by the boiling method and analysed using HPLC on a C18 column eluted with an acetonitrile gradient as described.

[4] = target: PfDHFS–FPGS (DHFS activity) (Plasmodium falciparum, UniProt Q8IE69); assay: DHFS assay of recombinant PfDHFS–FPGS ([14C]glutamate incorporation); type: biochemical; details: for Km: low co-substrate concentrations (ATP or glutamate ≤25 μM), Michaelis–Menten fit, read-out: apparent Km, DHFS activity
Procedure: as §1

[5] = test system: bacterial DHFS; details: cited from earlier work
[6] = test system: P. falciparum cultures; assay: Growth of P. falciparum cultures (dose–response); type: cell-based, Plasmodium falciparum
[7] = substrate: N[C@@H](CCC(=O)O)C(=O)O; assay: DHFS assay of recombinant PfDHFS–FPGS ([14C]glutamate incorporation); type: biochemical; details: other: low co-substrate concentrations (ATP or glutamate ≤25 μM), Michaelis–Menten fit; 37.0 °C
Procedure: as §1

[8] = low substrate concentrations, 25 μM substrate, 25 μM ATP, 18 μM glutamate

Molecule: 5,6,7,8-tetrahydrofolate [THF]
- processing as substrate for polyglutamylation by FPGS activity (words) [1]: efficiently converted to polyglutamylated forms
- Km [2]: 2 to 5 µM

Molecule: Nc1nc(=O)c2c([nH]1)NCC(CNc1ccc(C(=O)N[C@@H](CCC(=O)O)C(=O)O)cc1)N2C=O (mixture of isomers) [folinic acid]
- conversion to polyglutamylated forms in parasite cultures [3]: almost complete

Molecule: Nc1ncnc2c1ncn2[C@@H]1O[C@H](COP(=O)(O)OP(=O)(O)OP(=O)(O)O)[C@@H](O)[C@H]1O [ATP]
- Km [4]: 22.8 µM

Molecule: Nc1nc(=O)c2c([nH]1)NCC(CNc1ccc(C(=O)N[C@@H](CCC(=O)O)C(=O)O)cc1)=N2 [DHF, 7,8-dihydrofolate]
- processing as substrate for polyglutamylation by FPGS activity (words) [1]: very poor substrates
- polyglutamylated forms of folate produced compared with that produced from THF ([1]; high substrate concentrations, 100 μM substrate, 2 mM ATP, 200 μM glutamate): 12%
- processing as substrate for polyglutamylation by FPGS activity (words) ([1]; listed as dihydrofolate): negligibly processed
- polyglutamylated forms of folate produced compared with that produced from THF [1, 8]: 21%

Molecule: Nc1nc2c(c(=O)[nH]1)N=C(CNc1ccc(C(=O)O)cc1)CN2 [DHP, 7,8-dihydropteroate]
- Km [5]: 0.4 to 6 µM
- DHP concentration at which DHFS activity peaked ([4]; ATP 0.5 mM, glutamate up to ∼1 mM): 1 to 2 µM
- dissociation constant KA for the substrate binding (catalytic site) ([4]; best-fit model a (partial substrate inhibition, three substrates), ATP 6 μM to 5 mM, glutamate 25 μM to 1 mM, n = 15): 0.50 µM
- Kd ([4]; best-fit model a, ATP 6 μM to 5 mM, glutamate 25 μM to 1 mM, n = 15, read-out: dissociation constant KABCA for the substrate (DHP) inhibition (inhibitory site)): 1250 nM
- DHP concentration above which substrate inhibition became significant ([4]; high ATP and glutamate): > 2 µM
- Km [4]: 0.88 µM

Molecule: Nc1nc2c(c(=O)[nH]1)N=C(CNc1ccc(P(=O)(O)CC(CCC(=O)O)C(=O)O)cc1)CN2 (stereo not shown) [H2-1]
- Ki [1]: 630 nM
- IC50 [4]: 410 nM
- Ki [4]: 140 nM
- potency for DHFS activity over FPGS activity ([4]; from Ki values): about 5 fold

Molecule: Nc1nc2c(c(=O)[nH]1)N=C(CNc1ccc(C(=O)N[C@@H](CCP(=O)(O)CC(CCC(=O)O)C(=O)O)C(=O)O)cc1)CN2 (stereo partly shown) [H2-2]
- IC50 [1]: 390 nM
- Ki [1]: 91 nM
- potency for FPGS activity over DHFS activity ([1]; from Ki values): ~20 fold
- Ki [4]: 1690 nM

Molecule: CN(Cc1cnc2nc(N)nc(N)c2n1)c1ccc(C(=O)N[C@@H](CCC(=O)O)C(=O)O)cc1 [MTX, methotrexate]
- conversion to polyglutamylated forms in parasite cultures [3]: no polyglutamylated versions of MTX could be detected; also recorded: No polyglutamylated forms of MTX could be detected
- accumulation (uptake and retention) in parasites ([3]; equal initial label concentrations, 20 h): somewhat higher levels than folinic acid; also recorded: exceeded that of folinic acid
- processing as substrate for polyglutamylation by FPGS activity (words) [1]: negligibly processed; also recorded: not a substrate
- inhibition of FPGS activity ([1]; MTX up to 1.0 mM, THF 10 μM, ATP 5 mM, glutamate 275 μM): inhibited neither DHFS nor FPGS; also recorded: neither the DHFS nor FPGS activities showed any sensitivity
- IC50 ([6]; Plasmodium falciparum, average for four different strains): ~40 nM
- effect on parasite growth at extremely low levels ([6]; around 1 nM): stimulatory effect on growth
- inhibition of DHFS activity ([4]; MTX up to 1.0 mM, DHP 10 μM, ATP 5 mM, glutamate 275 μM): inhibited neither DHFS nor FPGS; also recorded: neither the DHFS nor FPGS activities showed any sensitivity

Molecule: Nc1nc2ncc(CNc3ccc(P(=O)(O)CC(CCC(=O)O)C(=O)O)cc3)nc2c(=O)[nH]1 (stereo not shown) [compound 1, 2-[[[4-[N-[(2-amino-3,4-dihydro-4-oxo-6-pteridinyl)methyl]amino]phenyl](hydroxy)phosphinoyl]methyl]pentane-1,5-dioic acid]
- strong inhibition of DHFS activity by the oxidised form ([4]; oxidised (unreduced) form): not its oxidised form

Molecule: Nc1nc(=O)c2nc(CNc3ccc(C(=O)N[C@@H](CCC(=O)O)C(=O)O)cc3)cnc2[nH]1 [folic acid]
- processing as substrate for polyglutamylation by FPGS activity (words) [1]: very poor substrates; also recorded: very low level of activity
- processing as substrate for polyglutamylation by FPGS activity (words) ([1]; listed as folate): negligibly processed
- polyglutamylated forms of folate produced compared with that produced from THF [1, 8]: insignificant

B1: PfDHFS–FPGS (DHFS activity) (Plasmodium falciparum 3D7) (protein)
chain: MEKNQNDKSNKNDIIHMNDKSGNYDKNNINNFIDKNDEHDMSDILHKINNEEKKYEEIKSYSECLELLYKTHALKLGLDNPKKLNESFGHPCDKYKTIHIAGTNGKGSVCYKIYTCLKIKKFKVGLFSSPHIFSLRERIIVNDEPISEKELIHLVNEVLNKAKKLYINPSFFEIITLVAFLHFLNKKVDYAIIETGIGGRLDATNILTKPEVIVITSIGYDHLNILGDNLPIICNEKIGIFKKDANVVIGPSVAIYKNVFDKAKELNCTIHTVVPEPRGERYNEENSRIALRTLEILNISIDYFLKSIIPIKPPLRIQYLATEQIQHIKKKFSPDNLEHNVQYPLAVILDVGHNETAIDRLCTDINYFHKGQNIRICISITKPRNLSVFHPFIAQFGDTLKDIFYLPSLNERTYDFEEIVEMLNNEEEIKNEIKELILSSSKKVGKWLAHEKQGNINEEDALKLYKRGCIPLIIKNAFLECCKDNSILLVCGTFFVFDEVLNVFDIHSDMQDTIFMNEPSLV
- Km [7]: 5.97 µM
